Reference: patent US10617670B2, “Synergistic auristatin combinations” (priority 2014, dated 2020)

Columns and labels:
[1] = rat
[2] = system: human cancer cell lines with PI3K pathway aberrations; test: Mouse xenograft models
in vitro = details: rat, plasma
[3] = system: panel of 81 protein kinases and Class III PI3K family hVps34; test: Kinase screening services (Dundee University and Invitrogen); type: biochemical; details: 81 protein kinases and hVps34
[4] = system: lung, breast cancer and ovarian cancer cell lines; test: In vitro cytotoxic activity and combinations, cell line panel; type: cell-based, human; details: agent alone
Procedure: Cells were plated in a 96-well clear-bottomed plates (Corning) and treated with varying concentrations of compounds for 4 days. […] by using a CellTiter Glo luminescent cell viability assay kit (Promega) and measured using a Victor X3 plate reader (Perkin Elmer). The data were normalised to the control group (empty vector or DMSO). The IC50 values were defined as the concentration that causes 50% growth inhibition. IC50 values were calculated using a logistic nonlinear regression, model no. 203 with XL fit v4.2 (IDBS, Guldford, Surry, UK). All experimental points were setup in three replicate wells and independently performed in duplicate.
The effects of drug combinations were evaluated using Chou-Talalay median effect analysis (28). Cells were treated with each drug alone and in combination in two independent 96-well plates in a diagonal matrix format, and proliferation was measured by using a CellTiter Glo kit (Promega). Results were expressed as surviving fractions (fraction affected, Fa), based on the measured luminescence counts of treated samples, compared to that of untreated controls. […]
In vitro cytotoxic activity was evaluated for the 5T4-ADC or the auristatin payloads in combination with various standard of care (SOC) agents or selected signaling inhibitors in lung, breast cancer and ovarian cancer cell lines. […]

[5] = system: more than 50 diverse human tumor cell lines; test: Anti-proliferative effect in tumor cell lines; type: cell-based
MDA-MB-361 = test: Apoptosis induction; type: cell-based; details: at 4 h, cleaved PARP
[6] = system: subcutaneous MDA-468 tumors; test: Xenograft efficacy; type: in vivo, mouse; details: 5T4-ADC 2 mg/kg
Procedure: Female athymic nu/nu mice (18-23 g) were obtained from Charles River Laboratories, Wilmington, Mass. […] ADCs were administered based on mAb protein content at 2 or 3 mg Ab/kg on a Q4D×4 (every 4 day) schedule, with 8 to 10 mice per group. […] All procedures using mice were approved by the Pfizer Institutional Animal Care and Use Committee according to established guidelines. Time To Endpoint (time to no tumor or rate of tumor tripling) were used for comparison of drug-treated groups.

With COc1ccc(-c2cc3c(C)nc(N)nc3n([C@H]3CC[C@H](OCCO)CC3)c2=O)cn1 [Compound 1A, 2-amino-8-[trans-4-(2-hydroxyethoxy)cyclohexyl]-6-(6-methoxypyridin-3-yl)-4-methylpyrido[2,3-d]pyrimidin-7(8H)-one] the clearance [1] was “low clearance”, the in vivo activity [2] was “has in vivo activity” and the fraction unbound (in vitro) was 0.202. For the same molecule, the “concentration up to which no significant inhibitory activity was observed for any of the evaluated kinases” value [3] was greater than 10 µM.

For C#Cc1cccc(Nc2ncnc3cc(OCCOC)c(OCCOC)cc23)c1 [Erlotinib], the “sensitivity of most of the cell lines to the single agent” value [4] was “relatively insensitive”.

In the case of O=C(NOC[C@H](O)CO)c1ccc(F)c(F)c1Nc1ccc(I)cc1F [PD-901], the “sensitivity of most of the cell lines to the single agent” value [4] is reported as “relatively insensitive”.

In the case of CN(C)C1CCN(C(=O)c2ccc(NC(=O)Nc3ccc(-c4nc(N5CCOCC5)nc(N5CCOCC5)n4)cc3)cc2)CC1 [PF-384, 1-(4-{[4-(dimethylamino)piperidin-1-yl]carbonyl}phenyl)-3-[4-(4,6-dimorpholin-4-yl-1,3,5-triazin-2-yl)phenyl]urea], the IC50 [5] is reported as less than 0.1 µM and the “concentration at which apoptosis was induced” value (MDA-MB-361) is reported as 30 nM.

For CC(=O)O[C@H]1C(=O)[C@@]2(C)[C@H]([C@H](OC(=O)c3ccccc3)[C@]3(O)C[C@H](OC(=O)[C@H](O)[C@@H](NC(=O)c4ccccc4)c4ccccc4)C(C)=C1C3(C)C)[C@]1(OC(C)=O)CO[C@@H]1C[C@@H]2O [paclitaxel], the “regressions / CRs by day 53” value ([6]; paclitaxel 22.5 mg/kg) was 6/10 and the “antitumor activity of monotherapy” value ([6]; paclitaxel 10 mg/kg) was “no pronounced effect on tumor growth”.
